In ChEMBL document CHEMBL1152405, “Bis-anthracenyl isoxazolyl amides have enhanced anticancer activity” (Bioorg Med Chem Lett, 2009):

What was measured:
[1] = tested on: 786-0; test: Growth inhibition of human 786-0 cells at 10 uM after 24 hrs by MTT assay relative to control; type: functional; parameters: scale not given: the % may be the effect or the level left
[2] = tested on: A549; test: Growth inhibition of human A549 cells at 10 uM after 24 hrs by MTT assay relative to control; type: functional; parameters: scale not given: the % may be the effect or the level left
[3] = Growth inhibition of human Hs 578T cells after 24 hrs by MTT assay; type: functional
[4] = tested on: OVCAR-3; test: Growth inhibition of human OVCAR-3 cells after 24 hrs by MTT assay; type: functional; settings: OVCAR-3, 24 h
[5] = tested on: KM12; test: Growth inhibition of human KM12 cells after 24 hrs by MTT assay; type: functional; settings: KM12, 24 h
[6] = tested on: NCI-H322M; test: Growth inhibition of human NCI-H322M cells at 10 uM after 24 hrs by MTT assay relative to control; type: functional; parameters: scale not given: the % may be the effect or the level left
[7] = tested on: MDA-MB-435; test: Growth inhibition of human MDA-MB-435 cells after 24 hrs by MTT assay; type: functional; settings: MDA-MB-435, 24 h
[8] = tested on: OVCAR-5; test: Growth inhibition of human OVCAR5 cells at 10 uM after 24 hrs by MTT assay relative to control; type: functional; parameters: scale not given: the % may be the effect or the level left
[9] = tested on: NCI/ADR-RES; test: Growth inhibition of human NCI/ADR-RES cells after 24 hrs by MTT assay; type: functional
[10] = tested on: UO-31; test: Growth inhibition of human UO31 cells after 24 hrs by MTT assay; type: functional; settings: UO-31, 24 h
[11] = tested on: SNB-19; test: Antitumor activity against human SNB19 cells after 24 hrs; type: functional, cell-based; settings: SNB-19, 24 h
[12] = tested on: T47D; test: Growth inhibition of human T47D cells after 24 hrs by MTT assay; type: functional
[13] = tested on: NCI-H23; test: Growth inhibition of human NCI-H23 cells at 10 uM after 24 hrs by MTT assay relative to control; type: functional; parameters: scale not given: the % may be the effect or the level left
[14] = tested on: M14; test: Growth inhibition of human M14 cells after 24 hrs by MTT assay; type: functional; settings: M14, 24 h
[15] = tested on: OVCAR-4; test: Growth inhibition of human OVCAR4 cells after 24 hrs by MTT assay; type: functional; settings: OVCAR-4, 24 h
[16] = tested on: HCT-116; test: Growth inhibition of human HCT116 cells at 10 uM after 24 hrs by MTT assay relative to control; type: functional; parameters: scale not given: the % may be the effect or the level left
[17] = tested on: LOX IMVI; test: Growth inhibition of human LOXIMVI cells at 10 uM after 24 hrs by MTT assay relative to control; type: functional; parameters: scale not given: the % may be the effect or the level left
[18] = tested on: SF-539; test: Growth inhibition of human SF539 cells at 10 uM after 24 hrs by MTT assay relative to control; type: functional; parameters: scale not given: the % may be the effect or the level left
[19] = tested on: EKVX; test: Growth inhibition of human EKVX cells at 10 uM after 24 hrs by MTT assay relative to control; type: functional; parameters: scale not given: the % may be the effect or the level left
[20] = tested on: NCI-H460; test: Growth inhibition of human NCI-H460 cells after 24 hrs by MTT assay; type: functional; settings: NCI-H460, 24 h
[21] = read-out: LC50 (the source's name)
[22] = read-out: pLC50 (the source's name) (converted)

Cc1onc(-c2c3ccccc3c(Cl)c3ccccc23)c1C(=O)Nc1cc(C(=O)NCCCN(C)CCCNC(=O)c2cc(NC(=O)c3c(-c4c5ccccc5c(Cl)c5ccccc45)noc3C)cn2C)n(C)c1
Activity [1]: -81.64%
Activity [2]: -59.15%
TGI [3]: 2940 nM
GI50 ([3]; read-out: GI50): 1150 nM
GI50 ([3]; read-out: pGI50 (converted)): 1150 nM
TGI [4]: 2610 nM
GI50 ([4]; read-out: GI50): 1310 nM
CC50 [4, 21]: 5190 nM
GI50 ([4]; read-out: pGI50 (converted)): 1320 nM
CC50 [4, 22]: 5130 nM
TGI [5]: 2630 nM
GI50 ([5]; read-out: GI50): 1350 nM
GI50 ([5]; read-out: pGI50 (converted)): 1350 nM
Activity [6]: -97.3%
TGI [7]: 3400 nM
GI50 ([7]; read-out: GI50): 1900 nM
GI50 ([7]; read-out: pGI50 (converted)): 1910 nM
Activity [8]: -85.02%
TGI [9]: > 100000 nM
GI50 ([9]; read-out: GI50): 13200 nM
CC50 [9, 21]: 100000 nM
GI50 ([9]; read-out: pGI50 (converted)): 13200 nM
CC50 [9, 22]: > 100000 nM
TGI [10]: 3400 nM
GI50 ([10]; read-out: GI50): 1780 nM
GI50 ([10]; read-out: pGI50 (converted)): 1780 nM
IC50 [11]: 4750 nM
TGI [12]: 5080 nM
GI50 ([12]; read-out: GI50): 1690 nM
CC50 [12, 21]: 24500 nM
GI50 ([12]; read-out: pGI50 (converted)): 1700 nM
CC50 [12, 22]: 24500 nM
Activity [13]: -73.08%
TGI [14]: 2800 nM
GI50 ([14]; read-out: GI50): 1480 nM
CC50 [14, 21]: 5290 nM
GI50 ([14]; read-out: pGI50 (converted)): 1480 nM
CC50 [14, 22]: 5250 nM
TGI [15]: 2880 nM
GI50 ([15]; read-out: GI50): 1490 nM
CC50 [15, 21]: 5560 nM
GI50 ([15]; read-out: pGI50 (converted)): 1480 nM
CC50 [15, 22]: 5620 nM
Activity [16]: -84.49%
Activity [17]: -100%
Activity [18]: -100%
Activity [19]: -58.5%
TGI [20]: 2230 nM
